Assay results reported in US20140005260A1 (TRI-SERVICE GENERAL HOSPITAL, priority 2012, published 2014).

What was measured:
Cdh5 = test: Western blot of Cdh5 protein in zebrafish embryos; assay type: in vivo; details: 1.5 ng injected at one cell stage, 72 hpf embryos
Protocol: Cdh5 antibody was used to detect the amount of Cdh5 protein expression by Western blot. The embryos were dechorionated and deyolked with two extra washing steps as described in Link et al. (BMC Dev Biol 2006; 6:1). Deyolked samples were dissolved in 2 μl of 2×SDS sample buffer for each embryo and incubated for 5 min at 95[…]. After full-speed centrifugation for 1 min in a microcentrifuge to remove insoluble particles, total proteins extracted from embryos were analyzed on a 12% SDS-PAGE gel, and Western blot analysis was performed (J Biol Chem 2011; 286:6855-64) using antiserum against mouse Cdh5 (15; 1:10,000). Anti-α-tubulin and anti-β-actin served as a protein loading control. Knockdown experiments were performed as follows: morpholino nucleic acid oligomers (MOs) were purchased from GeneTools (USA): vcana-MO ([…], SEQ ID NO: 1); s-vcanb-MO ([…], SEQ ID NO: 2); snai1b-MO ([…], SEQ ID NO: 3) (Development 134, 4073-4081, 2007); cdh5-MO ([…], SEQ ID NO: 4) (Developmental Dynamics. 2004. 231, 204-213; PloS One 2010. 5, e8807); troponin T2a, cardiac-MO (5′-[…]-3′, SEQ ID NO: 5) (Nat. Genet. 2002. 31, 106-110); and standard control-MO ([…], SEQ ID NO: 6). […]

S-vcanb = test: Western blot of S-vcanb protein in zebrafish embryos; assay type: in vivo; details: treated embryos
JC [1] = test: Versican V1, V2, Snail and E-cadherin protein level in treated cells; assay type: cell-based, mouse; details: 15 μM for 24 hr
Description: (§1) […]. […] […]. […] […].

4T-1 cells [2] = test: as above; assay type: cell-based, mouse; details: 15 μM for 24 hr
Description: as §1

B16OVA [3] = test: as above; assay type: cell-based, murine; details: 15 μM for 24 hr
Description: as §1

B16OVA [4] = test: MTT cell survival assay; assay type: cell-based, murine; details: 24 hr
Protocol: (§2) […]. Data is represented as a percentage of the DMSO control (DMSO), which is set to 100% and is expressed as mean±SEM (n=3).
(§3) It is well known that the Versican V1 increases EGFR signaling. […]. […]. Cells were plated at a density of 1×10^4 per well in 96-well plates and incubated for 12-16 h to allow cells to adhere. After 24 h, 0.5 mg/mL 3-(4,5-dimethylthiazol-2-yl)-2,5-diphenyltetrazolium bromide (MTT; Sigma) was added, and the cells were incubated for 4 h. Following incubation, each well was added 100 μl of 10% SDS/0.01N HCl solution and shaking for 5 min. Then, the absorbance was measured at 570 nm. Results were representative of three independent experiments, each done in quintuplicate. […].

[5] = system: zebrafish embryos Tg(cmlc2:HcRFP); test: In vivo observation of cardiac valve development in zebrafish embryos by HGM/2PF
Protocol: The zebrafish AB strain, as well as transgenic lines Tg(cmlc2:HcRFP) and Tg(cmlc2:EGFP), were cultured as previously described. Heart formation was observed under fluorescent stereomicroscopy (MZ Leica). […] The excitation source was a femtosecond Cr:forsterite laser with an output wavelength of 1230 nm. Second harmonic generation (SHG) and third harmonic generation (THG; J Struct Biol. 2004 147: 19-30) were applied to observe valve development in transgenic zebrafish Tg(cmlc2:HcRFP) in vivo. RFP marked the myocardial cells, while THG (410 nm) marked all cells in yellow, and SHG (615 nm) marked the skeletal and cardiac muscles in green. Paraffin sectioning with Hematoxylin and Eosin (H&E) staining was also used to perform histochemical analysis of the heart.
(§4) EGFR inhibitor AG 1478 (CalBiochem) was dissolved in DMSO and stocked as 1 mM at −20° C. […] Before use, the solution was re-dissolved at 65° C. for 1 h. In the control group, 100 embryos were placed in a 9 cm dish filled with a volume of 30 ml embryo medium containing 0.2 mM 1-phenyl-2-thio-urea (Sigma). […] Long-term treatment during 12-72 hpf included the specification stage of valve formation at 36-55 hpf and the invagination stage of valve formation at 55 hpf. Treatment during 12-48 hpf was used to examine the gene markers versican and cdh5 which expressed at the AVC.
By using HGH/2 PF to examine the zebrafish embryos derived from transgenic line Tg(cmlc2:HcRFP), the dynamics of valve development in vivo could easily be observed. For example, at 48 hpf, there was a single layer of cells in the endocardium at the AVC (FIG. 1A). […] Finally, at 87 hpf, the elongated structure was protruding towards the ventricle (FIG. 1C).

JC [6] = test: Level of AKT, pAKT, ERK and p-ERK in treated cells; assay type: cell-based, mouse; details: 15 μM, vs control cells
Description: (§5) […]. The EGFR signaling regulates cell proliferation through activates EGFR's intrinsic kinase and leads to activation of several downstream intracellular signaling pathways, including rat sarcoma-MAPK kinase (MEK)-extracellular-related kinase (ERK) and phosphoinositide 3-kinase (PI3K)-Akt pathways. It was reported the opposing effects of V1 and V2 on cell proliferation. […] […].

4T-1 cells [7] = test: Level of AKT, pAKT, ERK and p-ERK in treated cells; assay type: cell-based, mouse; details: 15 μM, vs control cells
Description: as §5

B16OVA cells = system: B16OVA cells
Protocol: (§6) For wound healing assays, B16OVA, JC or 4T-1 cells (1×10^6) were seeded onto 6-well plates in DMEM/RPMI 1640 medium and maintained at 37° C. until they reached 95% confluence. The monolayer of cells was wounded by a sterile pipette tip to create a 1-mm cell-free path. Culture medium was removed and the samples were washed with PBS, followed by culturing in DMEM/RPMI 1640 medium with 10 μg/ml of the Mitomycin C. Cells were photographed under a low-magnification microscope. […] The distances between the wounding centre and the front of the migrating cells (vertical axis) were measured for statistical analysis. […] To determine cell migration in the absence of cell proliferation, Mitomycin C was used to block mitosis and thus allowed the analysis of cell migration in the absence of cell proliferation.

B16OVA [8] = test: Level of AKT, pAKT, ERK and p-ERK in treated cells; assay type: cell-based, murine; details: 15 μM, vs control cells
Description: as §5

zebrafish embryos = test: Whole mount in situ hybridization (WISH) of snail, versican and cdh5 in zebrafish embryos; assay type: in vivo
Protocol: as §4, with “-20°” for “−20°”, “AVC. […] During mouse embryonic valve formation, Snail (Snail) in Snail family acts as the […] of cdh5 that inhibit the transcription of cdh5. […] WISH was performed as previously described (Nucleic Acids Res 2010; 38:4384-93). Riboprobe of cdh5 was prepared by cloning its partial DNA fragment, while riboprobe of versican was provided by […] (Nature 2003; 425:633-7). […] FIG. 7H).” for “AVC.”

JC cell = test: MTT cell survival assay; assay type: cell-based, mouse; details: 24 hr
Protocol: as §2, §3

EGFR = EGFR signaling in zebrafish embryos (EGFR dimers, EGFR phosphorylation, GSK3β); assay type: in vivo
JC cells [9] = test: Tumor growth in Balb/c mice after SC injection of treated JC cells; assay type: in vivo; details: tumors from treated JC cells, vs control group and Mitomycin C-treated group
Description: […]. […] For each group of tumors, the average volume for 3 tumors is plotted. Bars=95% confidence intervals.
Balb/c mice were inoculated by SC injection into the flank with contorl-Mitomycin C- or Amiodarone-treated JC cells. Each group had 3 mice, which were assigned to experimental groups randomly. All the other mice were sacrificed 2 weeks after treatment. […].

JC cells [10] = details: Mitomycin C alone, 10 μg/ml
Protocol: as §6

snail1b-MO: morpholino nucleic acid oligomer TTGACAAGA AATGAGCGTGGCATCT, SEQ ID NO: 3 (antisense TTGACAAGAAATGAGCGTGGCATCT; all phosphorodiamidate morpholino (PMO))
expression of Cdh5 protein relative to wild-type (Cdh5): 1.5 fold

CCCCc1oc2ccccc2c1C(=O)c1cc(I)c(OCCN(CC)CC)c(I)c1 [Amiodarone]
expression of S-vcanb protein (S-vcanb): increased
E-cadherin protein level (JC [1]): increased significantly
Snail protein level (JC [1]): greatly reduced
Versican V1 expression (JC [1]): reduced
Versican V2 expression (JC [1]; vs control cells): increased
E-cadherin protein level (4T-1 cells [2]): increased significantly
Snail protein level (4T-1 cells [2]): greatly reduced
Versican V1 expression (4T-1 cells [2]): no difference
Versican V2 expression (4T-1 cells [2]; vs control cells): increased
E-cadherin protein level (B16OVA [3]): increased significantly
Snail protein level (B16OVA [3]): greatly reduced
Versican V1 expression (B16OVA [3]): reduced
Versican V2 expression (B16OVA [3]; vs control cells): increased
cell survival (MTT) (B16OVA [4]; 15 μM): did not influence
cell survival (MTT) (B16OVA [4]; 10˜30 μM): does not influence
endocardial cells at the AVC ([5]; 15 μM during 12-48 hpf): no difference between treated and untreated embryos
valve structure ([5]; 15 μM during 12-72 hpf): only a small aggregation of cells were seen at the upper valve site
cellular aggregation at the valve region ([5]; 15 μM during 12-87 hpf, compared to untreated embryos): almost no cellular aggregation at the valve region
phosphorylated AKT (JC [6]): reduced greatly
phosphorylated ERK42/44 (JC [6]): reduced greatly
total level of AKT (JC [6]): unchanged
total level of ERK (JC [6]): unchanged
phosphorylated AKT (4T-1 cells [7]): reduced greatly
phosphorylated ERK42/44 (4T-1 cells [7]): reduced greatly
total level of AKT (4T-1 cells [7]): unchanged
total level of ERK (4T-1 cells [7]): unchanged
morphological change (B16OVA cells; cells at a growing phase, vs control cells): appeared more stripe and spread out than control cells
phosphorylated AKT (B16OVA [8]): reduced greatly
phosphorylated ERK42/44 (B16OVA [8]): reduced greatly
total level of AKT (B16OVA [8]): unchanged
total level of ERK (B16OVA [8]): unchanged
snai1b mRNA expression at the AVC (zebrafish embryos; 15 μM, treated during 55-72 hpf, observed at 72 hpf): lost and decreased or even disappeared
vcana and s-vcanb expression at the heart field (zebrafish embryos; 72 hpf embryos): induced
snai1a mRNA expression in the heart (zebrafish embryos; treated during 55-72 hpf, observed at 72 hpf): still was not expressed in the heart
cell survival (MTT) (JC cell; 15 μM): did not influence
cell survival (MTT) (JC cell; 10˜30 μM): does not influence
EGFR dimeration (EGFR; 72 hpf treated embryos): increased
activity of GSK3β (EGFR; Amiodarone treated embryos): increased significantly
total level of GSK3β (EGFR; Amiodarone treated embryos): unchanged
phosphorylation of EGFR (Tyr-845) (EGFR; treated embryos, dosage dependent manner): reduced
tumor growth (JC cells [9]): grew slower

CO[C@@]12[C@H](COC(N)=O)C3=C(C(=O)C(C)=C(N)C3=O)N1C[C@@H]1N[C@@H]12 [Mitomycin C]
time course of wound closure (JC cells [10]): did not affect the time course of wound closure
time course of wound closure (B16OVA cells; Mitomycin C alone, 10 μg/ml): did not affect the time course of wound closure

COc1cc2ncnc(Nc3cccc(Cl)c3)c2cc1OC [AG1478]
cdh5 expression at the heart field (zebrafish embryos; 7 μM, embryos at 55 to 72 hpf): ectopic expression
snail1b expression (zebrafish embryos; 7 μM, embryos at 55 to 72 hpf): lost
activity of GSK3β (EGFR; AG1478 treatment, 7 μM): increased significantly
total level of GSK3β (EGFR; AG1478 treatment, 7 μM): unchanged
